Tested on: SCID mice bearing twin HEK293-CCK2i4svR and wtHEK293 tumors
Experiment: Biodistribution in SCID mice bearing twin HEK293-CCK2i4svR and wtHEK293 xenografts
Type: in vivo
Outline: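 Uptake is expressed as %IA/g (mean ± SD, n = 4) from gamma counting of blood, organs and tumours collected at set times: 1, 4 and 24 h pi for ^67Ga, 4 and 24 h for ^111In (±gelofusine), 4–96 h for ^177Lu. Radioligands were given iv at 7–40 pmol to SCID mice bearing twin CCK2i4svR-transfected and wild-type HEK293 xenografts.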

Structure (SMILES): CC(C)(C)C(=O)CN1C(=O)[C@H](NC(=O)Nc2cccc(C(=O)NCCOCCOCCOCCNC(=O)[C@H](CCC(=O)O)NC(=O)CCC(C(=O)O)N3CCN(CC(=O)[O-])CCN(CC(=O)[O-])CCN(CC(=O)[O-])CC3)c2)CN(C2CCCCC2)c2ccccc21.[177Lu+3] (stereo in doubt) [[^177Lu]Lu-GAS3]
- Tumor to kidney ratio (96 pi): 13.8
- Biodistribution, Blood (4 h pi): 3.19 ± 0.44 %IA/g
- Biodistribution, CCK2i4svR(+) Tumor (4 h pi): 20.88 ± 1.20 %IA/g
- Biodistribution, CCK2i4svR(-) Tumor (4 h pi): 1.14 ± 0.50 %IA/g
- Biodistribution, Femur (4 h pi): 0.60 ± 0.07 %IA/g
- Biodistribution, Heart (4 h pi): 0.94 ± 0.21 %IA/g
- Biodistribution, Intestines (4 h pi): 1.85 ± 0.18 %IA/g
- Biodistribution, Kidneys (4 h pi): 8.86 ± 0.67 %IA/g
- Biodistribution, Liver (4 h pi): 2.73 ± 0.31 %IA/g
- Biodistribution, Lungs (4 h pi): 1.94 ± 0.21 %IA/g
- Biodistribution, Muscle (4 h pi): 0.31 ± 0.04 %IA/g
- Biodistribution, Pancreas (4 h pi): 1.00 ± 0.13 %IA/g
- Biodistribution, Spleen (4 h pi): 1.19 ± 0.12 %IA/g
- Biodistribution, Stomach (4 h pi): 0.64 ± 0.07 %IA/g
- Tumor to kidney ratio (4 h pi): 2.4
- Biodistribution, Blood (24 h pi): 0.07 ± 0.01 %IA/g
- Biodistribution, CCK2i4svR(+) Tumor (24 h pi): 5.38 ± 0.77 %IA/g
- Biodistribution, CCK2i4svR(-) Tumor (24 h pi): 0.37 ± 0.12 %IA/g
- Biodistribution, Femur (24 h pi): 0.11 ± 0.02 %IA/g
- Biodistribution, Heart (24 h pi): 0.08 ± 0.02 %IA/g
- Biodistribution, Intestines (24 h pi): 0.17 ± 0.04 %IA/g
- Biodistribution, Kidneys (24 h pi): 1.42 ± 0.29 %IA/g
- Biodistribution, Liver (24 h pi): 0.51 ± 0.05 %IA/g
- Biodistribution, Lungs (24 h pi): 0.26 ± 0.02 %IA/g
- Biodistribution, Muscle (24 h pi): 0.03 ± 0.01 %IA/g
- Biodistribution, Pancreas (24 h pi): 0.07 ± 0.01 %IA/g
- Biodistribution, Spleen (24 h pi): 0.45 ± 0.05 %IA/g
- Biodistribution, Stomach (24 h pi): 0.11 ± 0.01 %IA/g
- Tumor to kidney ratio (24 h pi): 3.8
- Biodistribution, Blood (48 h pi): 0.05 ± 0.01 %IA/g
- Biodistribution, CCK2i4svR(+) Tumor (48 h pi): 3.39 ± 0.23 %IA/g
- Biodistribution, CCK2i4svR(-) Tumor (48 h pi): 0.25 ± 0.14 %IA/g
- Biodistribution, Femur (48 h pi): 0.14 ± 0.04 %IA/g
- Biodistribution, Heart (48 h pi): 0.08 ± 0.01 %IA/g
- Biodistribution, Intestines (48 h pi): 0.07 ± 0.01 %IA/g
- Biodistribution, Kidneys (48 h pi): 0.47 ± 0.07 %IA/g
- Biodistribution, Liver (48 h pi): 0.35 ± 0.09 %IA/g
- Biodistribution, Lungs (48 h pi): 0.18 ± 0.03 %IA/g
- Biodistribution, Muscle (48 h pi): 0.04 ± 0.01 %IA/g
- Biodistribution, Pancreas (48 h pi): 0.08 ± 0.04 %IA/g
- Biodistribution, Spleen (48 h pi): 0.43 ± 0.10 %IA/g
- Biodistribution, Stomach (48 h pi): 0.08 ± 0.01 %IA/g
- Biodistribution, Blood (72 h pi): 0.04 ± 0.00 %IA/g
- Biodistribution, CCK2i4svR(+) Tumor (72 h pi): 1.99 ± 0.31 %IA/g
- Biodistribution, CCK2i4svR(-) Tumor (72 h pi): 0.13 ± 0.03 %IA/g
- Biodistribution, Femur (72 h pi): 0.06 ± 0.00 %IA/g
- Biodistribution, Heart (72 h pi): 0.04 ± 0.01 %IA/g
- Biodistribution, Intestines (72 h pi): 0.04 ± 0.01 %IA/g
- Biodistribution, Kidneys (72 h pi): 0.17 ± 0.04 %IA/g
- Biodistribution, Liver (72 h pi): 0.32 ± 0.02 %IA/g
- Biodistribution, Lungs (72 h pi): 0.15 ± 0.01 %IA/g
- Biodistribution, Muscle (72 h pi): 0.03 ± 0.01 %IA/g
- Biodistribution, Pancreas (72 h pi): 0.03 ± 0.01 %IA/g
- Biodistribution, Spleen (72 h pi): 0.44 ± 0.07 %IA/g
- Biodistribution, Stomach (72 h pi): 0.06 ± 0.02 %IA/g
- Biodistribution, Blood (96 h pi): 0.04 ± 0.00 %IA/g
- Biodistribution, CCK2i4svR(+) Tumor (96 h pi): 1.52 ± 0.43 %IA/g
- Biodistribution, CCK2i4svR(-) Tumor (96 h pi): 0.00 ± 0.04 %IA/g
- Biodistribution, Femur (96 h pi): 0.06 ± 0.00 %IA/g
- Biodistribution, Heart (96 h pi): 0.03 ± 0.01 %IA/g
- Biodistribution, Intestines (96 h pi): 0.03 ± 0.01 %IA/g
- Biodistribution, Kidneys (96 h pi): 0.11 ± 0.03 %IA/g
- Biodistribution, Liver (96 h pi): 0.25 ± 0.02 %IA/g
- Biodistribution, Lungs (96 h pi): 0.14 ± 0.01 %IA/g
- Biodistribution, Muscle (96 h pi): 0.01 ± 0.00 %IA/g
- Biodistribution, Pancreas (96 h pi): 0.02 ± 0.00 %IA/g
- Biodistribution, Spleen (96 h pi): 0.39 ± 0.02 %IA/g
- Biodistribution, Stomach (96 h pi): 0.04 ± 0.00 %IA/g
- Background clearance / excretion route (mouse, in vivo): rapid background clearance predominantly via the kidneys

— publication PMC8954547, “Nonpeptidic Z360-Analogs Tagged with Trivalent Radiometals as Anti-CCK2R Cancer Theranostic Agents: A Preclinical Study” (Pharmaceutics, 2022)
